Measurements reported in article PMC11631053, “A receptor-based assay to study the sweet and bitter tastes of sweeteners and binary sweet blends: the SWEET project” (Chemical Senses, 2024).
Like-named read-outs stand apart in the source and are kept apart here. Marks after values point to notes of the source that are not given here.

Legend:
[1] = sucrose = 1, cited from earlier work
TAS2R1 = target: T1, TAS2R1 (Homo sapiens, UniProt Q9NYW7); assay: Calcium mobilization assay, HEK293T-Gα16gust44 cells expressing TAS2R1; settings: for Response of TAS2R1: maximal concentration tested: sucralose 100 mM, neotame 30 µM, Ace-K 300 mM, RebA 4 mM, RebM 4 mM, mogroside V 5 mM, erythritol 200 mM, D-allulose 500 mM, thaumatin 100 mM
T1 sequence (Q9NYW7 1-299): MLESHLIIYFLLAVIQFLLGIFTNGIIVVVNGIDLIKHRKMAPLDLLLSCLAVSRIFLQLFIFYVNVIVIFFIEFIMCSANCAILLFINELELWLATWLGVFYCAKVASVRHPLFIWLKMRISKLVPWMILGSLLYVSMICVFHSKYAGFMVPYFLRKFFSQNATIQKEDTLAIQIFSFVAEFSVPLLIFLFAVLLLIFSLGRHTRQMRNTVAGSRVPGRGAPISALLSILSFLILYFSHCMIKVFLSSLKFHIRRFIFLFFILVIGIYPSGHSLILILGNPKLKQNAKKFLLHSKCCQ
Procedure: (§1) Different concentration ranges were tested depending on the injected sweet compound. […] All of the concentration-receptor combinations were measured in triplicate, and each experiment was repeated at least 3 times. The Ca^2+ change was expressed as a fractional change in fluorescent light intensity: ΔF/F = (F − F0)/F0, where F was the fluorescent light intensity at each point, and F0 was the value of fluorescent light emitted prior to stimulus application. To calculate dose–response relationships, the changes in fluorescence upon stimulus application were averaged, mock-subtracted and baseline-corrected. The resulting obtained dose–response data were adjusted by using a 4-parameter logistic equation.

TAS2R9 = target: T2, TAS2R9 (Homo sapiens, UniProt Q9NYW1); assay: Calcium mobilization assay, HEK293T-Gα16gust44 cells expressing TAS2R9; settings: maximal concentration tested: sucralose 100 mM, neotame 30 µM, Ace-K 300 mM, RebA 4 mM, RebM 4 mM, mogroside V 5 mM, erythritol 200 mM, D-allulose 500 mM, thaumatin 100 mM
T2 sequence (Q9NYW1 1-312): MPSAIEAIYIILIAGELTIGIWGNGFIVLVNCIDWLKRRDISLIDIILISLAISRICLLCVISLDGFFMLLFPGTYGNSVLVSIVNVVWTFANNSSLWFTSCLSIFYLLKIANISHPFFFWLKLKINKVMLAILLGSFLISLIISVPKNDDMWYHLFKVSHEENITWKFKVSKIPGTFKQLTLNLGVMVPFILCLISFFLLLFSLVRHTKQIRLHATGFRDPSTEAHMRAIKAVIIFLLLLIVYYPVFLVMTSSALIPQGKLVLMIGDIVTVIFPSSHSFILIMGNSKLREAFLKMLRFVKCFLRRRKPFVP
Procedure: (§2) Different concentration ranges were tested depending on the injected sweet compound. […] All of the concentration-receptor combinations were measured in triplicate, and each experiment was repeated at least 3 times. The Ca^2+ change was expressed as a fractional change in fluorescent light intensity: ΔF/F = (F − F0)/F0, where F was the fluorescent light intensity at each point, and F0 was the value of fluorescent light emitted prior to stimulus application. To calculate dose–response relationships, the changes in fluorescence upon stimulus application were averaged, mock-subtracted and baseline-corrected. The resulting obtained dose–response data were adjusted by using a 4-parameter logistic equation. The half-maximal effective concentration (EC50) was calculated by using SigmaPlot software (Systat Software, San Jose, CA, USA) as described in supplemental Supplementary Figs. S1, S2, and S3.

TAS2R13 = target: T3, TAS2R13 (Homo sapiens, UniProt Q9NYV9); assay: Calcium mobilization assay, HEK293T-Gα16gust44 cells expressing TAS2R13; settings: maximal concentration tested: sucralose 100 mM, neotame 30 µM, Ace-K 300 mM, RebA 4 mM, RebM 4 mM, mogroside V 5 mM, erythritol 200 mM, D-allulose 500 mM, thaumatin 100 mM
T3 sequence (Q9NYV9 1-303): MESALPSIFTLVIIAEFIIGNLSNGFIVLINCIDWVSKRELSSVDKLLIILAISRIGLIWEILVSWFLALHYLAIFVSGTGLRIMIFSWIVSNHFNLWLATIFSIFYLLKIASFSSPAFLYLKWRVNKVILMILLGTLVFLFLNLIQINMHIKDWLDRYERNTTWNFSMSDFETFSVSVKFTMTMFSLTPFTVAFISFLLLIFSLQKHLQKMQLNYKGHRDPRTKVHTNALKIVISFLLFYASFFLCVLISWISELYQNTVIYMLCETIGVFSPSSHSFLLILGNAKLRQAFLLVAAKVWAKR
Procedure: as §1

TAS2R16 = target: T4, TAS2R16 (Homo sapiens, UniProt Q9NYV7); assay: Calcium mobilization assay, HEK293T-Gα16gust44 cells expressing TAS2R16; settings: for Response of TAS2R16: maximal concentration tested: sucralose 100 mM, neotame 30 µM, Ace-K 300 mM, RebA 4 mM, RebM 4 mM, mogroside V 5 mM, erythritol 200 mM, D-allulose 500 mM, thaumatin 100 mM
T4 sequence (Q9NYV7 1-291): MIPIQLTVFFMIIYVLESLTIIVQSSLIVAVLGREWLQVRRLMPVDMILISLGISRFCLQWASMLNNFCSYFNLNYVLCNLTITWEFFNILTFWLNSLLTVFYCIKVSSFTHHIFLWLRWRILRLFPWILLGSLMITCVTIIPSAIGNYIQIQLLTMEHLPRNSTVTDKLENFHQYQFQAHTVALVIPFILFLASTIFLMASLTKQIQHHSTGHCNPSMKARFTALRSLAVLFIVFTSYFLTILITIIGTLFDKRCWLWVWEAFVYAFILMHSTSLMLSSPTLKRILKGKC
Procedure: as §1

TAS2R19 = target: T5, TAS2R19 (Homo sapiens, UniProt P59542); assay: Calcium mobilization assay, HEK293T-Gα16gust44 cells expressing TAS2R19; settings: maximal concentration tested: sucralose 100 mM, neotame 30 µM, Ace-K 300 mM, RebA 4 mM, RebM 4 mM, mogroside V 5 mM, erythritol 200 mM, D-allulose 500 mM, thaumatin 100 mM
T5 sequence (P59542 1-299): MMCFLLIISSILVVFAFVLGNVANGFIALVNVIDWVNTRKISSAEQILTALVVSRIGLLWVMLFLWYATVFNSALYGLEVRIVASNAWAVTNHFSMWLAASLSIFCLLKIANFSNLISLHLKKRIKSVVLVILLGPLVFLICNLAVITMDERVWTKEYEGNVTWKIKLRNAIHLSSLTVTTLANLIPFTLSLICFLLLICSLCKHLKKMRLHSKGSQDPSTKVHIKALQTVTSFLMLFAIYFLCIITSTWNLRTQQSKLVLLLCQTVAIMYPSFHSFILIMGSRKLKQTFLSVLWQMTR
Procedure: as §1

TAS2R31 = target: T6, TAS2R31 (Homo sapiens, UniProt P59538); assay: Calcium mobilization assay, HEK293T-Gα16gust44 cells expressing TAS2R31; settings: maximal concentration tested: sucralose 100 mM, neotame 30 µM, Ace-K 300 mM, RebA 4 mM, RebM 4 mM, mogroside V 5 mM, erythritol 200 mM, D-allulose 500 mM, thaumatin 100 mM
T6 sequence (P59538 1-309): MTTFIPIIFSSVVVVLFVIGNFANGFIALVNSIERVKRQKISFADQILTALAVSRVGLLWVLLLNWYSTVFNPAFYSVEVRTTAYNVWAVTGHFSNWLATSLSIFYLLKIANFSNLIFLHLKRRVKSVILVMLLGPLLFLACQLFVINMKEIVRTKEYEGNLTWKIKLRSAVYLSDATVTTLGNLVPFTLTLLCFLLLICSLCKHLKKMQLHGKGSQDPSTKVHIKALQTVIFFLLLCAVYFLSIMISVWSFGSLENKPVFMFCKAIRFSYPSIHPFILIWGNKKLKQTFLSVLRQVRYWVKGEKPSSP
Procedure: as §1

TAS2R50 = target: T7, TAS2R50 (Homo sapiens, UniProt P59544); assay: Calcium mobilization assay, HEK293T-Gα16gust44 cells expressing TAS2R50; settings: maximal concentration tested: sucralose 100 mM, neotame 30 µM, Ace-K 300 mM, RebA 4 mM, RebM 4 mM, mogroside V 5 mM, erythritol 200 mM, D-allulose 500 mM, thaumatin 100 mM
T7 sequence (P59544 1-299): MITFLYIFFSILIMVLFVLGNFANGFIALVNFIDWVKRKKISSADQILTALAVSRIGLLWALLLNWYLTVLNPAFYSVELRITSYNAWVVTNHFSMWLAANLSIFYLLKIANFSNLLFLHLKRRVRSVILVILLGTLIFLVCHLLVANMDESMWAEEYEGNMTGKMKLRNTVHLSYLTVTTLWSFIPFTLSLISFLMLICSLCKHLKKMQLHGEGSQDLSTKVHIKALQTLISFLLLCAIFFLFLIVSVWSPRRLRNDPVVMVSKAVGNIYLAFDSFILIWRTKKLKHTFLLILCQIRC
Procedure: as §2

[2] = ref Schiffman and Gatlin (1993)

Row | Molecule | Sweetness potency [1, 2] | Response of TAS2R1 (TAS2R1) | Response of TAS2R9 (TAS2R9) | Response of TAS2R13 (TAS2R13) | Response of TAS2R16 (TAS2R16) | Response of TAS2R19 (TAS2R19) | Response of TAS2R31 (TAS2R31) | Response of TAS2R50 (TAS2R50) | Sweetness potency ([1]; ref Ko et al. (2020)) | concentrations at which TAS2R16 was activated (TAS2R16) [mM] | Sweetness potency ([1]; ref Fujimaru et al. (2012)) | Sweetness potency ([1]; ref Jia and Yang (2009)) | EC50 (TAS2R16; read-out: TAS2R16 EC50) [mM] | Sweetness potency ([1]; ref Nofre and Tinti (2000)) | Sweetness potency ([1]; ref Prakash et al. (2014)) | EC50 (TAS2R1; TAS2R1 EC50) [mM] | Sweetness potency ([1]; ref van der Wel and Loeve (1972))
1 | CC1=CC(=O)NS(=O)(=O)O1 [Ace-K, acesulfame-K] | 200^g | − | − | − | − | − | #^b | − |  |  |  |  |  |  |  |  | 
2 | O=C(CO)[C@H](O)[C@H](O)[C@H](O)CO [D-allulose] |  | − | − | − | + | + | − | − | 0.6^h | > 300 |  |  |  |  |  |  | 
3 | OC[C@@H](O)[C@@H](O)CO [Erythritol, erythritol] |  | − | − | − | − | − | − | − |  |  | 0.9^f |  |  |  |  |  | 
4 | C[C@H](CC[C@@H](O[C@@H]1O[C@H](CO[C@@H]2O[C@H](CO)[C@@H](O)[C@H](O)[C@H]2O)[C@@H](O)[C@H](O)[C@H]1O[C@@H]1O[C@H](CO)[C@@H](O)[C@H](O)[C@H]1O)C(C)(C)O)[C@H]1CC[C@@]2(C)[C@@H]3CC=C4[C@@H](CC[C@H](O[C@@H]5O[C@H](CO[C@@H]6O[C@H](CO)[C@@H](O)[C@H](O)[C@H]6O)[C@@H](O)[C@H](O)[C@H]5O)C4(C)C)[C@]3(C)[C@H](O)C[C@]12C [Mogroside V, mogroside V] |  | − | − | − | + | − | − | − |  |  |  | 500^c | 1.18 ± 0.44 |  |  |  | 
5 | COC(=O)[C@H](Cc1ccccc1)NC(=O)[C@H](CC(=O)O)NCCC(C)(C)C [Neotame] |  | − | − | − | − | − | − | − |  |  |  |  |  | 10,000^a |  |  | 
6 | C=C1C[C@@]23CC[C@H]4[C@@](C)(CCC[C@@]4(C)C(=O)O[C@@H]4O[C@H](CO)[C@@H](O)[C@H](O[C@@H]5O[C@H](CO)[C@@H](O)[C@H](O)[C@H]5O)[C@H]4O[C@@H]4O[C@H](CO)[C@@H](O)[C@H](O)[C@H]4O)[C@@H]2CC[C@]1(O[C@@H]1O[C@H](CO)[C@@H](O)[C@H](O[C@@H]2O[C@H](CO)[C@@H](O)[C@H](O)[C@H]2O)[C@H]1O[C@@H]1O[C@H](CO)[C@@H](O)[C@H](O)[C@H]1O)C3 [RebM, Rebaudioside M] |  | − | − | − | − | − | − | − |  |  |  |  |  |  | 250^d |  | 
7 | OC[C@H]1O[C@H](O[C@]2(CCl)O[C@H](CCl)[C@@H](O)[C@@H]2O)[C@H](O)[C@@H](O)[C@H]1Cl [Sucralose, sucralose] | 600^g | #^a | − | − | − | − | §^a | − |  |  |  |  |  |  |  | > 100 | 
8 | thaumatin |  | − | − | − | − | − | − | − |  |  |  |  |  |  |  |  | 100,000^b
